Key:
Assay in all cases: combination Emax (second highest fraction inhibited in the dose matrix, 72 h); higher = more inhibition; extreme values may be limits of the assay
[1] = tested on: CADO-ES1 (Ewing's Sarcoma)
Procedure, shortened: (§1)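 Cell lines grown in DMEM/F12 or RPMI with 10% FBS were plated in 1536-well plates and held 24 hours at 37°C, 5% CO2 before 72 hours of exposure to two-drug dose matrices, with DMSO typically at 0.2%. CellTiter-Glo 2.0 luminescence gave viability, which was converted to inhibition. Vehicle wells were set to 0 and blank wells to 1. Combination Emax is the second-highest inhibition in the matrix, and Bliss excess is the observed combination effect minus the expected EA + EB − EA·EB, where EA and EB are the single-agent effects.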

COLO-679 (Melanoma) = tested on: COLO-679 (Melanoma)
Procedure, shortened: as §1

[2] = tested on: DU-145 (Prostate Carcinoma)
Procedure, shortened: as §1

[3] = tested on: EFO-21 (Ovarian Carcinoma)
Procedure, shortened: as §1

[4] = tested on: HCC2998 (Colorectal Carcinoma)
Procedure, shortened: as §1

Hey (Ovarian Carcinoma) = tested on: Hey (Ovarian Carcinoma)
Procedure, shortened: as §1

[5] = tested on: KGN (Other Solid Carcinomas)
Procedure, shortened: as §1

[6] = tested on: KMRC-1 (Kidney Carcinoma)
Procedure, shortened: as §1

[7] = tested on: LC-1-sq (Squamous Cell Lung Carcinoma)
Procedure, shortened: as §1

[8] = tested on: ME-180 (Cervical Carcinoma)
Procedure, shortened: as §1

[9] = tested on: ML-2 (Acute Myeloid Leukemia)
Procedure, shortened: as §1

[10] = tested on: MOG-G-UVW (Low Grade Glioma)
Procedure, shortened: as §1

[11] = tested on: MOLT-4 (T-Lymphoblastic Leukemia)
Procedure, shortened: as §1

[12] = tested on: MV-4-11 (Acute Myeloid Leukemia)
Procedure, shortened: as §1

[13] = tested on: Mo-T (Other Blood Carcinomas)
Procedure, shortened: as §1

[14] = tested on: NCI-H1838 (Lung Adenocarcinoma)
Procedure, shortened: as §1

[15] = tested on: NCI-H522 (Lung Adenocarcinoma)
Procedure, shortened: as §1

SK-N-AS (Neuroblastoma) = tested on: SK-N-AS (Neuroblastoma)
Procedure, shortened: as §1

[16] = tested on: SKN (Other Solid Carcinomas)
Procedure, shortened: as §1

[17] = tested on: SW982 (Other Solid Carcinomas)
Procedure, shortened: as §1

SMILES | combination Emax [1] | combination Emax (COLO-679 (Melanoma)) | combination Emax [2] | combination Emax [3] | combination Emax [4] | combination Emax (Hey (Ovarian Carcinoma)) | combination Emax [5] | combination Emax [6] | combination Emax [7] | combination Emax [8] | combination Emax [9] | combination Emax [10] | combination Emax [11] | combination Emax [12] | combination Emax [13] | combination Emax [14] | combination Emax [15] | combination Emax (SK-N-AS (Neuroblastoma)) | combination Emax [16] | combination Emax [17]
Cn1cnc2c(F)c(Nc3ccc(Br)cc3Cl)c(C(=O)NOCCO)cc21 [Selumetinib] + C[C@@H]1COCCN1C2=NC(=NC(=C2)C3(CC3)[S@](=N)(=O)C)C4=C5C=CNC5=NC=C4 [AZD6738] (first compound max 10 µM, 7x7, partner max 10 µM) | 0.822 | 0.82 | 0.347 | 0.255 | 0.899 | 0.748 | 0.808 | 0.373 | 0.684 | 0.465 | 0.982 | 0.691 | 0.991 | 0.97 | 0.362 | 0.374 | 0.0701 | 0.817 | 0.423 | 0.593
CC(=O)Nc1cccc(-n2c(=O)n(C3CC3)c(=O)c3c(Nc4ccc(I)cc4F)n(C)c(=O)c(C)c32)c1 [Trametinib] + Cc1nc(-c2cn3c(n2)-c2ccc(-c4cnn(C(C)(C)C(N)=O)c4)cc2OCC3)n(C(C)C)n1 [Taselisib] (first compound max 1 µM, 7x7, partner max 10 µM) | 0.245 | 0.856 | 0.411 | 0.618 | 0.928 | 0.893 | 0.807 | 0.748 | 0.722 | 0.714 | 0.968 | 0.955 | 0.859 | 0.848 | 0.524 | 0.476 | 0.245 | 0.73 | 0.676 | 0.83
CC1(C)CCC(CN2CCN(c3ccc(C(=O)NS(=O)(=O)c4ccc(NCC5CCOCC5)c([N+](=O)[O-])c4)c(Oc4cnc5[nH]ccc5c4)c3)CC2)=C(c2ccc(Cl)cc2)C1 [Venetoclax] + C1CN(CCC1(C(=O)N[C@@H](CCO)C2=CC=C(C=C2)Cl)N)C3=NC=NC4=C3C=CN4 [Capivasertib] (first compound max 1 µM, 7x7, partner max 3 µM) | 0.667 | 0.146 | 0.2 | 0.222 | 0.298 | 0.24 | 0.389 | 0.368 | 0.198 | 0.517 | 0.933 | 0.455 | 0.718 | 1 | 0.604 | 0.283 | 0.133 | 0.203 | 0.42 | 0.256

— the supplement of paper PMC11061612
